Data taken from US20260014146A1, “CDK2 INHIBITORS AND METHODS OF USING THE SAME” (Cedilla Therapeutics, Inc., priority 2022, published 2026).

Legend:
[1] = target: CDK2/Cyclin E1 (Homo sapiens (Human), UniProt P24941); test: Caliper LabChip EZ Reader mobility shift assay; type: biochemical; settings: 2.5 nM CDK2/Cyclin E1 (14-475), 100 μM ATP, 1.5 μM fluorescent peptide; read-out: Caliper Assay (CDK2/CCNE1): IC50
Description: Inhibition of CDK2/Cyclin E1 activity in the presence of compounds of the present disclosure was evaluated using a Caliper LabChip® EZ Reader mobility shift assay. In the assay, activated CDK2/Cyclin E1 catalyzes the phosphorylation of a fluorescently tagged peptide 5-FAM-QSPKKG-CONH2 (PerkinElmer, FL Peptide 18) which induces a difference in capillary electrophoresis mobility. The peptide substrate and product were measured, and the conversion ratio was used to determine the inhibition (as % activity and IC50 values) of CDK2/Cyclin E1. Reactions contained 50 mM HEPES pH 7.5, 10 mM MgCl2, 1 mM EDTA, 2 mM DTT, 0.01% Brij35, 0.5 mg/mL BSA, 0.1% DMSO, 2.5 nM CDK2/Cyclin E1 (14-475), 100 μM ATP, and 1.5 μM fluorescent peptide substrate.
Dose titrations of inhibitors in 100% DMSO were combined with 3.25 nM CDK2/Cyclin E1 (14-475) and 130 μM of ATP in reaction buffer. The mixtures were incubated for 30 minutes before the addition of fluorescent peptide substrate to initiate the kinase reaction. The final conditions were 2.5 nM CDK2/Cyclin E1 (14-475), 100 μM ATP, and 1.5 μM fluorescent peptide. The reactions were stopped after 100 minutes with the addition of EDTA (6 mM final EDTA concentration). The stopped reactions were analyzed on a Caliper LabChip® EZ Reader II. The conversion ratios were normalized to yield % activity, plotted against compound concentration, and fit to a four-parameter equation to determine the IC50 for each compound.

[2] = system: Kuramochi cells labeled with mApple-H2B; test: IncuCyte cell proliferation assay; type: cell-based; settings: Kuramochi RB-WT, cell count 0 to 72 hours; method calls it GI50
Description: IncuCyte® assay was used to measure the effect of disclosed compounds on cell proliferation. Fluorescent microscopy images of cells were taken immediately after compound treatment and 72 hours later. Image analysis software was used to obtain cell counts as a function of compound concentration. Kuramochi cells labeled with mApple-H2B were seeded on 384-well assay-ready plates. Plates were placed in an IncuCyte® (Sartorius) and scanned at 0 and 72 hours. IncuCyte® software was used to count the number of fluorescent nuclei in each well. The fold change in cell count from 0 to 72 hours in wells treated with increasing compounds concentrations (10 pts, 1/2 log dilution, 20 μM top concentration) was normalized to DMSO control wells. The normalized cell counts were fit with dose response curves and a GI50 was calculated.

## COC[C@H]1CCCN(C(=O)C(NC(=O)[C@@H]2CN(c3nc(C(F)(F)F)cs3)CC23CN(C(=O)[C@H]2CC2(C)C)C3)[C@@H](C)OCC23CCC(CC2)OC3)C1 (stereo in doubt) [Compound I-17, (S)-N-((2S,3R)-3-(2-oxabicyclo[2.2.2]octan-4-ylmethoxy)-1-((S)-3-(methoxymethyl)piperidin-1-yl)-1-oxobutan-2-yl)-2-((S)-2,2-dimethylcyclopropanecarbonyl)-6-(4-(trifluoromethyl)thiazol-2-yl)-2,6-diazaspiro[3.4]octane-8-carboxamide]
[1]
  IC50: > 10 µM
[2]
  IC50: > 20 µM

## CC(C)(O)C(NC(=O)[C@@H]1CN(C(=O)c2cncs2)CC12CN(c1ncco1)C2)c1cccc(C2CCOCC2)n1 (stereo partly drawn) [Compound I-5, (8S)—N-(2-hydroxy-2-methyl-1-(6-(tetrahydro-2H-pyran-4-yl) 239yridine-2-yl)propyl)-2-(oxazol-2-yl)-6-(thiazole-5-carbonyl)-2,6-diazaspiro[3.4]octane-8-carboxamide]
[1]
  IC50: > 10 µM
[2]
  IC50: > 20 µM

## C[C@@H](OCC1CCC(F)(F)CC1)[C@H](NC(=O)[C@@H]1CN(C(=O)c2cncs2)CC12CN(c1cc[nH]n1)C2)C(C)(C)O [Compound I-6, (S)-N-((3S,4R)-4-((4,4-difluorocyclohexyl)methoxy)-2-hydroxy-2-methylpentan-3-yl)-2-(1H-pyrazol-3-yl)-6-(thiazole-5-carbonyl)-2,6-diazaspiro[3.4]octane-8-carboxamide]
[1]
  IC50: > 10 µM
[2]
  IC50: > 20 µM

## C[C@@H](OCC1CCCCC1)[C@H](NC(=O)[C@@H]1CN(c2cccc3[nH]ncc23)CC12CN(C(=O)[C@H]1CC1(C)C)C2)C(=O)N1CCCCC1 [Compound I-13, (S)-N-((2S,3R)-3-(cyclohexylmethoxy)-1-oxo-1-(piperidin-1-yl)butan-2-yl)-2-((S)-2,2-dimethylcyclopropanecarbonyl)-6-(1H-indazol-4-yl)-2,6-diazaspiro[3.4]octane-8-carboxamide]
[1]
  IC50: 1 to 10 µM
[2]
  IC50: 5 to 20 µM

## C[C@@H](OCC1CCCCC1)[C@H](NC(=O)[C@@H]1CN(c2nccc3ncsc23)CC12CN(C(=O)[C@H]1CC1(C)C)C2)C(=O)N1CCCCC1 [Compound I-15, (S)-N-((2S,3R)-3-(cyclohexylmethoxy)-1-oxo-1-(piperidin-1-yl)butan-2-yl)-2-((S)-2,2-dimethylcyclopropanecarbonyl)-6-(thiazolo[5,4-c]pyridin-4-yl)-2,6-diazaspiro[3.4]octane-8-carboxamide]
[1]
  IC50: 0.1 to 1 µM
[2]
  IC50: 5 to 20 µM

## C[C@@H](OCC12CCC(CC1)OC2)C(NC(=O)[C@@H]1CN(c2cccc3ncsc23)CC12CN(C(=O)[C@H]1CC1(C)C)C2)C(C)(C)O (stereo partly drawn) [Compound I-16, (S)-N-((3S,4R)-4-((2-oxabicyclo[2.2.2]octan-4-yl)methoxy)-2-hydroxy-2-methylpentan-3-yl)-6-(benzo[d]thiazol-7-yl)-2-((S)-2,2-dimethylcyclopropane-1-carbonyl)-2,6-diazaspiro[3.4]octane-8-carboxamide]
[1]
  IC50: > 10 µM

## C[C@@H](OCC12CCC(CC1)OC2)[C@H](NC(=O)[C@@H]1CN(c2nccc3ncsc23)CC12CN(C(=O)[C@H]1CC1(C)C)C2)C(=O)N1CCC2(CC1)COC2 [Compound I-19, (S)-N-((2S,3R)-3-(2-oxabicyclo[2.2.2]octan-4-ylmethoxy)-1-oxo-1-(2-oxa-7-azaspiro[3.5]nonan-7-yl)butan-2-yl)-2-((S)-2,2-dimethylcyclopropanecarbonyl)-6-(thiazolo[5,4-c]pyridin-4-yl)-2,6-diazaspiro[3.4]octane-8-carboxamide]
[1]
  IC50: 1 to 10 µM
[2]
  IC50: > 20 µM

## COC[C@H]1CCCN(C(=O)[C@@H](NC(=O)[C@@H]2CN(c3cc(O)cc4ncsc34)CC23CN(C(=O)[C@H]2CC2(C)C)C3)[C@@H](C)OCC23CCC(CC2)OC3)C1 [Compound I-20, (S)-N-((2S,3R)-3-(2-oxabicyclo[2.2.2]octan-4-ylmethoxy)-1-((S)-3-(methoxymethyl)piperidin-1-yl)-1-oxobutan-2-yl)-2-((S)-2,2-dimethylcyclopropanecarbonyl)-6-(5-hydroxybenzo[d]thiazol-7-yl)-2,6-diazaspiro[3.4]octane-8-carboxamide]
[1]
  IC50: 0.1 to 1 µM
[2]
  IC50: 5 to 20 µM

## COC[C@H]1CCCN(C(=O)[C@@H](NC(=O)[C@@H]2CN(c3cc(C(F)(F)F)cc4ncsc34)CC23CN(C(=O)[C@H]2CC2(C)C)C3)[C@@H](C)OCC23CCC(CC2)OC3)C1 [Compound I-21, (S)-N-((2S,3R)-3-(2-oxabicyclo[2.2.2]octan-4-ylmethoxy)-1-((S)-3-(methoxymethyl)piperidin-1-yl)-1-oxobutan-2-yl)-2-((S)-2,2-dimethylcyclopropanecarbonyl)-6-(5-(trifluoromethyl)benzo[d]thiazol-7-yl)-2,6-diazaspiro[3.4]octane-8-carboxamide]
[1]
  IC50: > 10 µM
[2]
  IC50: 5 to 20 µM

## C[C@@H](OCC12CCC(CC1)OC2)[C@H](NC(=O)[C@@H]1CN(c2cccc3ncsc23)CC12CN(C(=O)[C@H]1CC1(C)C)C2)C(=O)N(C)C [Compound I-22, (S)-N-((2S,3R)-3-(2-oxabicyclo[2.2.2]octan-4-ylmethoxy)-1-(dimethylamino)-1-oxobutan-2-yl)-6-(benzo[d]thiazol-7-yl)-2-((S)-2,2-dimethylcyclopropanecarbonyl)-2,6-diazaspiro[3.4]octane-8-carboxamide]
[1]
  IC50: 1 to 10 µM
[2]
  IC50: > 20 µM

## C[C@@H](OCC12CCC(CC1)OC2)[C@H](NC(=O)[C@@H]1CN(c2nccc3ncsc23)CC12CN(C(=O)[C@H]1CC1(C)C)C2)C(=O)N(C)C [Compound I-23, (S)-N-((2S,3R)-3-(2-oxabicyclo[2.2.2]octan-4-ylmethoxy)-1-(dimethylamino)-1-oxobutan-2-yl)-2-((S)-2,2-dimethylcyclopropanecarbonyl)-6-(thiazolo[5,4-c]pyridin-4-yl)-2,6-diazaspiro[3.4]octane-8-carboxamide]
[1]
  IC50: 1 to 10 µM
[2]
  IC50: > 20 µM

## COC[C@H]1CCCN(C(=O)[C@@H](NC(=O)[C@@H]2CN(c3n[nH]c4ncccc34)CC23CN(C(=O)[C@H]2CC2(C)C)C3)[C@@H](C)OCC23CCC(CC2)OC3)C1 [Compound I-24, (S)-N-((2S,3R)-3-(2-oxabicyclo[2.2.2]octan-4-ylmethoxy)-1-((S)-3-(methoxymethyl)piperidin-1-yl)-1-oxobutan-2-yl)-2-((S)-2,2-dimethylcyclopropanecarbonyl)-6-(1H-pyrazolo[3,4-b]pyridin-3-yl)-2,6-diazaspiro[3.4]octane-8-carboxamide]
[1]
  IC50: > 10 µM

## CC(OCC12CCC(CC1)OC2)[C@H](NC(=O)[C@@H]1CN(c2ncnc3ncsc23)CC12CN(C(=O)[C@H]1CC1(C)C)C2)C(=O)N1CC2(CCOCC2)C1 (stereo partly drawn) [Compound I-25, (S)-N-((2S,3R)-3-((2-oxabicyclo[2.2.2]octan-4-yl)methoxy)-1-oxo-1-(7-oxa-2-azaspiro[3.5]nonan-2-yl)butan-2-yl)-2-((S)-2,2-dimethylcyclopropane-1-carbonyl)-6-(thiazolo[4,5-d]pyrimidin-7-yl)-2,6-diazaspiro[3.4]octane-8-carboxamide]
[1]
  IC50: 0.1 to 1 µM
[2]
  IC50: > 20 µM

## C[C@@H](OCC12CCC(CC1)OC2)[C@H](NC(=O)[C@@H]1CN(c2ncnc3ncsc23)CC12CN(C(=O)[C@H]1CC1(C)C)C2)C(=O)N1CCC(OC(F)(F)F)CC1 [Compound I-29, (S)-N-((2S,3R)-3-((2-oxabicyclo[2.2.2]octan-4-yl)methoxy)-1-oxo-1-(4-(trifluoromethoxy)piperidin-1-yl)butan-2-yl)-2-((S)-2,2-dimethylcyclopropane-1-carbonyl)-6-(thiazolo[4,5-d]pyrimidin-7-yl)-2,6-diazaspiro[3.4]octane-8-carboxamide]
[1]
  IC50: 0.01 to 0.1 µM
[2]
  IC50: 5 to 20 µM

## C[C@@H](OCC12CCC(CC1)OC2)[C@H](NC(=O)[C@@H]1CN(C(=O)c2cncs2)CC12CN(c1cc[nH]n1)C2)C(C)(C)O [Compound I-31, (S)-N-((3S,4R)-4-(2-oxabicyclo[2.2.2]octan-4-ylmethoxy)-2-hydroxy-2-methylpentan-3-yl)-2-(1H-pyrazol-3-yl)-6-(thiazole-5-carbonyl)-2,6-diazaspiro[3.4]octane-8-carboxamide]
[1]
  IC50: > 10 µM
